According to US4435391A, “Dibenzoxazepine derivative, and pharmaceutical composition comprising the same” (Chugai Seiyaku Kabushiki Kaisha, priority 1980, dated 1984):
Where two headings read alike, the source gives them in different places.

Key:
[1] = system: cholesterol (TC) level of plasma; assay: Plasma cholesterol (TC) in Triton-injected mice (Experiment 2); type: in vivo, mice of ddY strain; conditions: Table 2, 150 mg/kg immediately and 8 hours after Triton WR-1399 500 mg/kg i.v., blood drawn 24 h after Triton; for inhibition in vivo: Mus musculus, iv, read-out: Percent Reduction TC (x ± S.E.)
Procedure: (§1) The mice of ddY strain weighing between 25 and 30 g were fasted overnight and then Triton WR-1399(500 mg/kg) (Ruger Chemicals Co.) was intravenously injected into the mice. Immediately and 8 hours after the injection, each mouse was administered 150 mg/kg of a test compound of this invention as suspended in 1% aqueous methylcellulose.
(§2) 24 Hours after the injection of Triton, the blood was drawn from the heart. The cholesterol (TC) and triglyuride (TG) levels of plasma were determined with RaBASuper (Chugai Seiyaku K.K., Japan).
(§3) As a positive control, chlofibrate were used.

[2] = system: lipid peroxide level (TBA) of blood; assay: Lipid peroxide (TBA) level of blood in alloxan-treated mice (Experiment 1); type: in vivo, male mice of ddY strain; conditions: Table 1, 300 mg/kg orally, 22 h after alloxan 75 mg/kg i.v., blood drawn 48 h after alloxan, vs untreated mice; for inhibition in vivo at 300 mg/kg: Mus musculus, po, read-out: Percent Reduction TBA (x ± S.E.)
Procedure: (§4) Male mice of ddY strain weighing between 25 and 30 g were divided into groups of 10 members each and administered intravenously 75 mg/kg of alloxan. Twenty-two hours later, each mouse was administered orally 300 mg/kg of a test compound of this invention as suspended in 1% gum arabic. […] The lipid peroxide level (TBA) of blood was determined with Lipoperoxide-Test Wako (Wako Pure Chemical Industries, Ltd., Japan). The level of blood sugar (BG) was determined with New Blood Sugar Test (Berlinger Mannheim AG., West Germany). […] As a positive control, tocopherol was used.

[3] = system: triglyuride (TG) level of plasma; assay: Plasma triglyceride (TG) in Triton-injected mice (Experiment 2); type: in vivo, mice of ddY strain; conditions: Table 2, 150 mg/kg immediately and 8 hours after Triton WR-1399 500 mg/kg i.v., blood drawn 24 h after Triton; for inhibition in vivo: Mus musculus, iv, read-out: Percent Reduction TG (x ± S.E.)
Procedure: as §1, §2, §3

[4] = system: level of blood sugar (BG); assay: Blood sugar (BG) level in alloxan-treated mice (Experiment 1); type: in vivo, male mice of ddY strain; conditions: Table 1, 300 mg/kg orally, 22 h after alloxan 75 mg/kg i.v., blood drawn 48 h after alloxan, vs untreated mice
Procedure: as §4

[5] = system: platelets (platelet rich plasma); assay: Inhibition of platelet aggregation in platelet rich plasma (Experiment 3); type: cell-based, SD strain rats; conditions: for inhibition at 100 µM: Rattus norvegicus, Platelet
Procedure: Platelet rich plasma samples were prepared from the blood of SD strain rats, and to 0.5 ml of the samples, test compounds in the form of a solution in dimethyl sulfoxide (DMSO) were added in such an amount that the concentration of the compounds in the mixture was 1×10^-4 M. The assay media containing aspirin were used as a control. After incubation for one minute, arachidonic acid, collagen and adenosine diphosphate (ADP) were added to the mixture in concentrations of 1×10^-4 M, 1.5×10^-3 M and 1×10^-6 M, respectively, to aggregate the platelets. The aggregation level was determined with an aggregometer. CORNING-EEL MODEL 16P (Manufactured by Evans Electro Selenium Ltd.) and the percent inhibition of platelets was calculated from the following equation: [formula]

[6] = Table 3 (own numbering), compound 1×10^-4 M, aggregation by ADP 1×10^-6 M, read-out: Percent Inhibition of Aggregation, ADP
[7] = Table 3 (own numbering), compound 1×10^-4 M, aggregation by arachidonic acid 1×10^-4 M, read-out: Percent Inhibition of Aggregation, Arachidonic acid
[8] = Table 3 (own numbering), compound 1×10^-4 M, aggregation by collagen 1.5×10^-3 M, read-out: Percent Inhibition of Aggregation, Collagen
[9] = Table 3 (own numbering), compound 1×10^-4 M, aggregation by ADP 1×10^-6 M
[10] = Table 3 (own numbering), compound 1×10^-4 M, aggregation by arachidonic acid 1×10^-4 M
[11] = Table 3 (own numbering), compound 1×10^-4 M, aggregation by collagen 1.5×10^-3 M

| Compound | inhibition in vivo [1] [%] | inhibition in vivo at 300 mg/kg [2] [%] | inhibition in vivo [3] [%] | inhibition at 100 µM [5, 6] [%] | inhibition at 100 µM [5, 7] [%] | inhibition at 100 µM [5, 8] [%] | further results |
| --- | --- | --- | --- | --- | --- | --- | --- |
| CCOC(=O)c1ccc2c(c1)N=C(CC)c1cc(OC)cc(OC)c1O2 [Compound 16] | 16.4 | 28.5 | 17.8 |  |  |  |  |
| CCOC(=O)c1ccc2c(c1)N=C(CC)c1ccc(OC)cc1O2 [Compound 6] | 19.5 | 54 | 19.6 |  |  |  |  |
| Cc1ccc2c(c1)C=Nc1cc(C(=O)O)ccc1O2 [Compound 15] | 17.7 | 23.8 | 19.4 |  |  |  | Percent Reduction BG (x ± S.E.) [4]: 16.5% |
| CCOC(=O)c1ccc2c(c1)N=C(C)c1ccc(C)cc1O2 [Compound 3 (Table 3)] |  |  |  | 50 | 55 | 43 |  |
| CCOC(=O)c1ccc2c(c1)N=C(C=Cc1ccccc1)c1cc(OC)ccc1O2 [Compound 17 (Table 1)] |  |  |  | 46 | 48 | 45 |  |
| CCOC(=O)c1ccc2c(c1)N=C(C)c1cccc(C)c1O2 [Compound 4 (Table 3)] |  |  |  | 51 | 60 | 48 |  |
| CCOC(=O)c1ccc2c(c1)N=Cc1ccc(C)cc1O2 [Compound 3] | 17.8 | 23 | 18.7 |  |  |  | Percent Reduction BG (x ± S.E.) [4]: 16.5% |
| CCOC(=O)c1ccc2c(c1)N=C(CC)c1ccc(C)cc1O2 [Compound 4 (Table 1)] |  |  |  | 50 | 60 | 47 |  |
| CC1=Nc2cc(C(=O)O)ccc2Oc2cc(C)ccc21 [Compound 8] | 18.6 | 52 | 19.3 |  |  |  | Percent Reduction BG (x ± S.E.) [4]: 16.3% |
| 11-methyl-3-methoxydibenz[b,f][1,4]oxazepine-8-carboxylic acid [Compound 7 (Table 1)] |  |  |  |  |  |  | Percent Reduction TBA (x ± S.E.) [2]: 61.1%; Percent Reduction TG (x ± S.E.) [3]: 17.8% |
| CCOC(=O)c1ccc2c(c1)N=C(CC)c1cc(OC)cc(OC)c1O2 [Compound 16 (Table 1)] |  |  |  | 44 | 52 | 47 |  |
| CCCC1=Nc2cc(C(=O)OCC)ccc2Oc2cc(C)ccc21 [Compound 20] | 16.5 | 39.6 | 17.4 | 47 | 60 | 50 |  |
| CCOC(=O)c1ccc2c(c1)N=C(C)c1cccc(OC)c1O2 [Compound 5 (Table 3)] |  |  |  | 35 | 45 | 30 |  |
| COC(=O)c1ccc2c(c1)N=Cc1cccc(OC)c1O2 [Compound 10] | 20.7 | 50.3 | 24.5 | 36 | 38 | 34 |  |
| CCOc1cccc2c1Oc1ccc(C(=O)O)cc1N=C2 [Compound 14] | 19.5 | 63.4 | 21.3 |  |  |  | Percent Reduction BG (x ± S.E.) [4]: 18.7% |
| ethyl 4-methoxydibenz[b,f][1,4]oxazepine-8-carboxylate [Compound 6 (Table 3)] |  |  |  |  |  |  | Percent Reduction TC (x ± S.E.) ([1]; listed as 1): 19.3%; Percent Reduction TC (x ± S.E.) ([1]; listed as 2): 21.4%; Percent Reduction TBA (x ± S.E.) ([2]; listed as 1): 12.3%; Percent Reduction TBA (x ± S.E.) ([2]; listed as 2): 25.5%; Percent Reduction BG (x ± S.E.) ([4]; listed as 1): 15.5%; Percent Reduction BG (x ± S.E.) ([4]; listed as 2): 22.4%; Percent Inhibition of Aggregation, ADP [5, 9]: 20%; Percent Inhibition of Aggregation, Arachidonic acid [5, 10]: 40%; Percent Inhibition of Aggregation, Collagen [5, 11]: 25%; Percent Reduction TG (x ± S.E.) ([3]; listed as 1): 20.8%; Percent Reduction TG (x ± S.E.) ([3]; listed as 2): 23.5% |
| CCC1=Nc2cc(C(=O)O)ccc2Oc2cc(OC)ccc21 [Compound 9] | 17.9 | 67.7 | 18.5 |  |  |  | Percent Reduction BG (x ± S.E.) [4]: 18.4% |
| CC(=O)Oc1ccccc1C(=O)O [aspirin, reference compound] |  |  |  |  |  |  | inhibition at 100 µM ([5]; read-out: Percent Inhibition of Aggregation, ADP): 17%; inhibition at 100 µM ([5]; read-out: Percent Inhibition of Aggregation, Arachidonic acid): 100%; inhibition at 100 µM ([5]; read-out: Percent Inhibition of Aggregation, Collagen): 8% |
| CCCOC(=O)c1ccc2c(c1)N=Cc1cccc(OC)c1O2 [Compound 11] | 19.2 | 38.6 | 21.3 | 43 | 42 | 40 |  |
| CCOC(=O)c1ccc2c(c1)N=C(c1ccccc1)c1ccc(OC)cc1O2 [Compound 18 (Table 1)] |  |  |  | 40 | 50 | 43 |  |
| CCOC(=O)c1ccc2c(c1)N=C(c1ccccc1)c1ccc(OC)cc1O2 [Compound 18] | 18.4 ± 2.9 | 41.7 ± 3.2 | 21.3 ± 3.2 |  |  |  |  |
| Cc1c(C)c2c(c(C)c1O)CCC(C)(CCCC(C)CCCC(C)CCCC(C)C)O2 (stereo not drawn) [α-tocopherol, reference compound] |  | 51.7 |  |  |  |  |  |
| O=C(O)c1ccc2c(c1)N=Cc1cc(Cl)ccc1O2 [Compound 13] | 14.5 | 18.3 | 15.2 |  |  |  | Percent Reduction BG (x ± S.E.) [4]: 10.4% |
| CCOC(=O)C(C)(C)Oc1ccc(Cl)cc1 [chlofibrate, reference compound] | 13.8 |  | 9.5 |  |  |  |  |
| ethyl 11-methyl-3-methoxydibenz[b,f][1,4]oxazepine-8-carboxylate [Compound 5 (Table 1)] |  |  |  |  |  |  | Percent Reduction TC (x ± S.E.) [1]: 18.4%; Percent Reduction TBA (x ± S.E.) [2]: 35.2%; Percent Inhibition of Aggregation, ADP [5, 9]: 45%; Percent Inhibition of Aggregation, Arachidonic acid [5, 10]: 63%; Percent Inhibition of Aggregation, Collagen [5, 11]: 50%; Percent Reduction TG (x ± S.E.) [3]: 18.7% |
| CCOC(=O)c1ccc2c(c1)N=C(c1cccc(C)c1)c1ccc(OC)cc1O2 [Compound 19] | 20.1 | 34.9 | 19.7 | 39 | 45 | 41 |  |
| CCOC(=O)c1ccc2c(c1)N=C(C=Cc1ccccc1)c1cc(OC)ccc1O2 [Compound 17] | 17.4 ± 3.5 | 34.4 ± 2.9 | 19.7 ± 4.5 |  |  |  |  |
| CCCCOC(=O)c1ccc2c(c1)N=Cc1cccc(OC)c1O2 [Compound 12] | 17.4 | 19.7 | 19.3 | 35 | 43 | 37 |  |
| COc1ccc2c(c1)Oc1ccc(C(=O)O)cc1N=C2C [Compound 7] | 17.3 | 64.8 | 18.8 |  |  |  | Percent Reduction BG (x ± S.E.) [4]: 15.7% |
